Converted amounts (≈) assume the structure as drawn.
Legend:
[1] = Water solubility was evaluated; format: ADME; settings: read-out: Ws
Rattus norvegicus [2] = organism: Rattus norvegicus; assay: Compound was evaluated for the amount of protein solubilized, expressed as percentage weight of freeze-dried microsomes (20 mg) of rat liver; format: functional
Rattus norvegicus [3] = organism: Rattus norvegicus; assay: Compound was evaluated for the amount of protein solubilized, expressed as percentage weight of freeze-dried mitochondria (20 mg) of rat liver; format: functional, organism-based
Rattus norvegicus [4] = organism: Rattus norvegicus; assay: Compound was evaluated for the amount of protein solubilized, expressed as percentage weight of freeze-dried nuclear membrane (100 mg) of rat liver; format: functional

Compound: O=C(CC[S+]([O-])CCC(F)(F)C(F)(F)C(F)(F)C(F)(F)C(F)(F)C(F)(F)F)NC(CO[C@H]1O[C@@H](CO)[C@@H](O)[C@@H](O)[C@@H]1O)(CO[C@@H]1O[C@H](CO)[C@H](O)[C@H](O)[C@H]1O)CO[C@@H]1O[C@H](CO)[C@H](O)[C@H](O)[C@H]1O (some centres not stated)
- solubility [1]: > 10 mg/mL

Compound: CCCCCCCC[S+]([O-])CCC(=O)NC(CO)(CO)CO (configuration not stated)
- Weight (Rattus norvegicus [2]): 71%
- Weight (Rattus norvegicus [3]): 69.8%
- solubility [1]: > 10 mg/mL
- Weight (Rattus norvegicus [4]): 55.5%

Compound: O=C(CC[S+]([O-])CCC(F)(F)C(F)(F)C(F)(F)C(F)(F)C(F)(F)C(F)(F)C(F)(F)C(F)(F)F)NC(CO)(CO)COC1O[C@H](CO)[C@H](O)[C@H](O)[C@H]1O (some centres not stated)
- solubility [1]: > 1.5 mg/mL

Compound: CC(C)(C)CC(C)(C)c1ccc(OCCO)cc1
- Weight (Rattus norvegicus [2]): 76.2%
- Weight (Rattus norvegicus [3]): 74.9%
- Weight (Rattus norvegicus [4]): 62.2%

Compound: O=C(CC[S+]([O-])CCC(F)(F)C(F)(F)C(F)(F)C(F)(F)C(F)(F)C(F)(F)C(F)(F)C(F)(F)F)NC(CO)(CO)CO (configuration not stated)
- solubility [1]: 0.025 mg/mL (≈ 37.2 µM)

Compound: O=C(CC[S+]([O-])CCC(F)(F)C(F)(F)C(F)(F)C(F)(F)C(F)(F)C(F)(F)F)NC(CO)(CO)CO (configuration not stated)
- Weight (Rattus norvegicus [2]): 32.6%
- Weight (Rattus norvegicus [3]): 30.3%
- solubility [1]: 1.2 mg/mL (≈ 2100 µM)
- Weight (Rattus norvegicus [4]): 25.5%

Compound: CCCCCCCCCCCCCCCC[S+]([O-])CCC(=O)NC(CO)(CO)CO (configuration not stated)
- Weight (Rattus norvegicus [2]): 58.4%
- Weight (Rattus norvegicus [3]): 58.6%
- solubility [1]: 0.085 mg/mL (≈ 189 µM)
- Weight (Rattus norvegicus [4]): 45.7%

Compound: CCCCCCCCCCCC[S+]([O-])CCC(=O)NC(CO)(CO)CO[C@@H]1O[C@H](CO)[C@H](O)[C@H](O)[C@H]1O (some centres not stated)
- solubility [1]: > 10 mg/mL

Compound: CCCCCCCCCCCC[S+]([O-])CCC(=O)NC(CO)(CO)CO (configuration not stated)
- Weight (Rattus norvegicus [2]): 62.5%
- Weight (Rattus norvegicus [3]): 65.6%
- solubility [1]: > 6 mg/mL
- Weight (Rattus norvegicus [4]): 52.4%

Compound: CCCCCCCCCC[S+]([O-])CCC(=O)NC(CO)(CO)CO (configuration not stated)
- Weight (Rattus norvegicus [2]): 68.9%
- Weight (Rattus norvegicus [3]): 71%
- solubility [1]: > 10 mg/mL
- Weight (Rattus norvegicus [4]): 57.4%

— ChEMBL document CHEMBL1130846, “A new class of sulfoxide surfactants derived from Tris. Synthesis and preliminary assessments of their properties” (Bioorg Med Chem Lett, 1998)
